Assay results published in ChEMBL document CHEMBL1201862, “PubChem BioAssay data set” (2004).
Calls of active or inactive are those of the source.

Key:
[1] = target: T1, Tyrosine-protein phosphatase non-receptor type 7 (Homo sapiens, UniProt P35236); type: functional
T1 sequence (P35236 whole entry): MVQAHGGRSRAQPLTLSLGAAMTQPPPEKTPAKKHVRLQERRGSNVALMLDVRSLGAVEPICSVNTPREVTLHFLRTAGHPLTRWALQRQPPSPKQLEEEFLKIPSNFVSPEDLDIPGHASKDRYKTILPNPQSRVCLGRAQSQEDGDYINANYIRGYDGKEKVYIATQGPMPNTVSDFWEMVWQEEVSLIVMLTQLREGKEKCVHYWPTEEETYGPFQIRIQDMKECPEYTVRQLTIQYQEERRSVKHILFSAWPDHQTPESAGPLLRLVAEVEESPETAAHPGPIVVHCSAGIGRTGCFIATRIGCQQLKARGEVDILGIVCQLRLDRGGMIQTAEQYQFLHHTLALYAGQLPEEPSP

[2] = target: T2, Tyrosine-protein phosphatase non-receptor type 22 (Homo sapiens, UniProt Q9Y2R2); type: functional
T2 sequence (Q9Y2R2 whole entry): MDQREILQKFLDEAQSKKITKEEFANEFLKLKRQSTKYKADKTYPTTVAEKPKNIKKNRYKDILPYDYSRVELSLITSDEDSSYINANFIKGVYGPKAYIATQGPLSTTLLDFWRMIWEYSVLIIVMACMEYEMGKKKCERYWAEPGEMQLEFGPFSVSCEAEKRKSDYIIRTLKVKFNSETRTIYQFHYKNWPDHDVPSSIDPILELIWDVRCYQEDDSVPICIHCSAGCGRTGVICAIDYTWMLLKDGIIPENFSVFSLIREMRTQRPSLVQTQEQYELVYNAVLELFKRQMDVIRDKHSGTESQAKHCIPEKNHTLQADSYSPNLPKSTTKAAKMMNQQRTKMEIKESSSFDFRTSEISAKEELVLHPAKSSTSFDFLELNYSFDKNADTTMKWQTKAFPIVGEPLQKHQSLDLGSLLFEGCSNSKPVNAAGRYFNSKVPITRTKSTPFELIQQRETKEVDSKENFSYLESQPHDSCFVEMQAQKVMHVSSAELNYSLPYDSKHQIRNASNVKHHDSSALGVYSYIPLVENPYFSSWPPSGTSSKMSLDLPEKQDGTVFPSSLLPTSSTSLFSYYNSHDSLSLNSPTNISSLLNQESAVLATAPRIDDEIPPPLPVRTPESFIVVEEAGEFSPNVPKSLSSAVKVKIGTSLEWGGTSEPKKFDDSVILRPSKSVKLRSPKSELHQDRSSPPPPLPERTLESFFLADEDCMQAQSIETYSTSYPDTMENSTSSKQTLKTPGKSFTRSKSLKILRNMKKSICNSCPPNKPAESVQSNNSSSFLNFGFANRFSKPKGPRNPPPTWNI

[3] = target: T2, Tyrosine-protein phosphatase non-receptor type 22; type: functional; remark: listed apart in the source
[4] = (§1) Late stage assay provider results from the probe development effort to identify inhibitors of Protein Phosphatase Methylesterase 1 (PME-1): luminescence-based biochemical dose response assay to determine cytotoxicity of inhibitor compounds. [Related pubchem assays (depositor defined):AID2130, AID2143, AID2171, AID2174, AID2177, AID2232, AID2233, AID2291, AID2363, AID2365, AID2366, AID2368, AID2369, AID2371, AID463124, AID463130, AID463131, AID463132, AID463146, AID463149] Panel member name: Fetal Calf Serum; type: toxicity
[5] = as §1, with “Serum-free Media” for “Fetal Calf Serum”; type: toxicity
[6] = tested on: H9c2; experiment: cells; type: functional, cell-based; settings: Rattus norvegicus, H9c2, Myocardium;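 also: confirmatory concentration-response retest of ultra-high-throughput screening hits for modulation of myocardial damage; cell death induced by hydrogen peroxide oxidative stress; compound pretreatment for 60 min then peroxide exposure for 2 h; potency is for protecting the cells against peroxide damage rather than for killing them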
[7] = target: T3, Fatty acid synthase (Homo sapiens, UniProt P49327); experiment: inhibition of human FAS-TE enzyme activity – biochemical, endpoint fluorescence intensity, uHTS hits, dose response (AID 624327); type: functional;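 also: fluorescence from hydrolysis of an O-methyl fluorescein acyl ester substrate by the enzyme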
[8] = target: T3, Fatty acid synthase; experiment: inhibition of human FAS-TE enzyme activity – biochemical, kinetic fluorescence intensity, dose response (AID 624326); type: functional;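 also: rate of fluorescence rise from hydrolysis of a fluorogenic O-methyl fluorescein ester substrate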
[9] = Luminescence Cell-Based Dose Confirmation HTS to Identify Activators of 5'UTR Stem-Loop Driven Alpha-Synuclein mRNA Translation in H4 Neuroglioblastoma Cells. [Related pubchem assays: 1829 (Project Summary), 1814 (Primary HTS)]; type: functional
[10] = Luminescence Cell-Based Dose Response HTS to Identify Activators of Luciferase Translation or Activity in H4 […] Cells. [Related pubchem assays: 1829 (Project Summary), 1814 (Primary HTS)]; type: functional
[11] = tested on: H4; experiment: Luminescence Cell-Based Dose Response HTS to Identify Activators of 5'UTR Stem-Loop Driven Prion Protein mRNA Translation in H4 Neuroglioblastoma Cells. [Related pubchem assays: 1829 (Project Summary), 1814 (Primary HTS)]; type: functional; settings: Homo sapiens
[12] = target: T4, Kappa-type opioid receptor (Homo sapiens, UniProt P41145); type: functional
T4 sequence (P41145 whole entry): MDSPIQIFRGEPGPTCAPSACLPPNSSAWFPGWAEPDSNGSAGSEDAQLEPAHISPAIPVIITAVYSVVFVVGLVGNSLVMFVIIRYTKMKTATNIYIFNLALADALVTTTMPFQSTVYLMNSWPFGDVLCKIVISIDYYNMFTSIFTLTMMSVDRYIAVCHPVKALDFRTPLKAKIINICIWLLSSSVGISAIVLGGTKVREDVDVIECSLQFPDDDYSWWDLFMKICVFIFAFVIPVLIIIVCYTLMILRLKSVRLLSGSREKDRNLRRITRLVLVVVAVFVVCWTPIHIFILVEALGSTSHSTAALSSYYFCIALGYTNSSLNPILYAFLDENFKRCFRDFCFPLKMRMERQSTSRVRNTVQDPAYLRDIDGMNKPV

[13] = target: Beta-galactosidase (Escherichia coli, UniProt Q8VNN2); type: functional
Beta-galactosidase, sequence (Q8VNN2 whole entry): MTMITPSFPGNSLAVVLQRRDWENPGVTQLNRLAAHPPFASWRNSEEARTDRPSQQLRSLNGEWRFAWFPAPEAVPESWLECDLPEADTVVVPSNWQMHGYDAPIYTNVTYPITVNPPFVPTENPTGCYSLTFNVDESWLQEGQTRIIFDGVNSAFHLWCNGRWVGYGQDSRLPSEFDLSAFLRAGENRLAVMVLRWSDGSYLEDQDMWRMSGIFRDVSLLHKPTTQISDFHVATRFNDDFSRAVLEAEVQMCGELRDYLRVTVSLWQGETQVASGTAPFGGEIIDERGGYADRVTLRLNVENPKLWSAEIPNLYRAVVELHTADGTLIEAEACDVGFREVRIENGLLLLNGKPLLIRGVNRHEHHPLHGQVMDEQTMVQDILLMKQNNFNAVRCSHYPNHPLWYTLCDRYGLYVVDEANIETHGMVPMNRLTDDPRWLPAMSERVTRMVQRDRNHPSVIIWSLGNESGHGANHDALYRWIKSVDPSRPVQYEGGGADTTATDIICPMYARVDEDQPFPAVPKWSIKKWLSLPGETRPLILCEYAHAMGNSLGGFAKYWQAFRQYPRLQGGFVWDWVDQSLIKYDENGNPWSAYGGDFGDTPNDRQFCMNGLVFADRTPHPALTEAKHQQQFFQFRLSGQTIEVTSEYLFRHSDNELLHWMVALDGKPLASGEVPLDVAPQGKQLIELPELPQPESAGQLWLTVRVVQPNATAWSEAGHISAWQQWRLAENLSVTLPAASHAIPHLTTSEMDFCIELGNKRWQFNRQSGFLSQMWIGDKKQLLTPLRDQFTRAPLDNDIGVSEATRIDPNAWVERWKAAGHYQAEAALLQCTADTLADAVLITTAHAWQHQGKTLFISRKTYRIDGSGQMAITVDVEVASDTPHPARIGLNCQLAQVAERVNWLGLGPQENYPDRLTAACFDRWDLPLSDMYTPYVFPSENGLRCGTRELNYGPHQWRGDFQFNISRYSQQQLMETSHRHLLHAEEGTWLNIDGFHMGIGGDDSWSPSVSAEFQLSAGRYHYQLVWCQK

[14] = target: T4, Kappa-type opioid receptor; type: functional; remark: listed apart in the source
[15] = target: T5, Mu-type opioid receptor (Homo sapiens, UniProt P35372); experiment: mu opioid receptor activators, image-based, SAR follow-up (AID 2352); type: functional
T5 sequence (P35372 whole entry): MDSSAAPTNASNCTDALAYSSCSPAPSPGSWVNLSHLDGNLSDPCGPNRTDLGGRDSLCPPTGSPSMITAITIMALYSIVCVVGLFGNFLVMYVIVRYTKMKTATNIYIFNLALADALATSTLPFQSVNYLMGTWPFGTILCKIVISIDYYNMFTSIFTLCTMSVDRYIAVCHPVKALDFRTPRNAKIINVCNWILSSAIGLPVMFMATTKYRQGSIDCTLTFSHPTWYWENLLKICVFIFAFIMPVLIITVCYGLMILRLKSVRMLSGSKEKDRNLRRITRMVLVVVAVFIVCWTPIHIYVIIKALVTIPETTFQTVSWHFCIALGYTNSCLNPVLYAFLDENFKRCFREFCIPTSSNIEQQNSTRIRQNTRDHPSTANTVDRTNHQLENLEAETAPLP

[16] = target: T6, Delta-type opioid receptor (Homo sapiens, UniProt P41143); experiment: DOR agonists, SAR follow-up, image-based (AID 2370); type: functional
T6 sequence (P41143 whole entry): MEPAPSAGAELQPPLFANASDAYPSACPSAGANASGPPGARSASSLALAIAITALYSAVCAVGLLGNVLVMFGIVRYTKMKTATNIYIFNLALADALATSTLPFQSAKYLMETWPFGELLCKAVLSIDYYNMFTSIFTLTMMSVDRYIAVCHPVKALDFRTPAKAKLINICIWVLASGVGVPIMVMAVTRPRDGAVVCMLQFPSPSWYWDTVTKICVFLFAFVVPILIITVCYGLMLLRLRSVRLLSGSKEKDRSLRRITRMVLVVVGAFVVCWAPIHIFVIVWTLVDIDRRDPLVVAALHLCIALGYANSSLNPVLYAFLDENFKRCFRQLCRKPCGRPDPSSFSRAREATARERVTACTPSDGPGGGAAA

[17] = target: T4, Kappa-type opioid receptor; experiment: kappa opioid receptor blockers, image-based, SAR follow-up (AID 2348); type: functional
[18] = target: T5, Mu-type opioid receptor; experiment: mu opioid receptor blockers – image-based, SAR follow-up (AID 2420); type: functional;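 also: compounds added before stimulation of receptor with agonist DAMGO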
[19] = target: T4, Kappa-type opioid receptor; experiment: kappa opioid receptor activation potency – imaging, image-based, SAR follow-up (AID 2359); type: functional
[20] = target: T6, Delta-type opioid receptor; experiment: delta opioid receptor blockers – image-based, SAR follow-up (AID 2357); type: functional
[21] = target: T4, Kappa-type opioid receptor; experiment: kappa opioid receptor blockers, cell-based, luminescence, beta-arrestin, SAR follow-up (AID 2285); type: functional
[22] = target: T7, G-protein coupled receptor 55 (Homo sapiens, UniProt Q9Y2T6); experiment: inhibition of LPI-stimulated GPR55 beta-arrestin translocation – imaging, U2OS, beta-arrestin-GFP, LPI agonist, primary screen (AID 2013); type: functional;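 also: antagonist potency measured as reduced agonist-driven arrestin aggregation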
T7 sequence (Q9Y2T6 whole entry): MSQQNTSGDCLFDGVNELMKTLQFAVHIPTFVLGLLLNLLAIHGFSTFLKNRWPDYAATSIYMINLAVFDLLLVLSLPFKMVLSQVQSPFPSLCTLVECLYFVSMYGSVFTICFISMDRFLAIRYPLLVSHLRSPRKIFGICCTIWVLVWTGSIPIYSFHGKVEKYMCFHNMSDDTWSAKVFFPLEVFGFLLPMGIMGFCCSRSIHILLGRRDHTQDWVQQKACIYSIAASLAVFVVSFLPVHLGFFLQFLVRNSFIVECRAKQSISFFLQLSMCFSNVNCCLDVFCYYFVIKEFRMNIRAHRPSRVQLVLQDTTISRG

[23] = target: T8, Cannabinoid receptor 1 (Homo sapiens, UniProt P21554); experiment: SAR analysis of antagonists of the Cannabinoid Receptor 1 using an Image-Based Assay - Set 2. [Related pubchem assays (depositor defined):AID2013, AID2026]; type: functional
T8 sequence (P21554 whole entry): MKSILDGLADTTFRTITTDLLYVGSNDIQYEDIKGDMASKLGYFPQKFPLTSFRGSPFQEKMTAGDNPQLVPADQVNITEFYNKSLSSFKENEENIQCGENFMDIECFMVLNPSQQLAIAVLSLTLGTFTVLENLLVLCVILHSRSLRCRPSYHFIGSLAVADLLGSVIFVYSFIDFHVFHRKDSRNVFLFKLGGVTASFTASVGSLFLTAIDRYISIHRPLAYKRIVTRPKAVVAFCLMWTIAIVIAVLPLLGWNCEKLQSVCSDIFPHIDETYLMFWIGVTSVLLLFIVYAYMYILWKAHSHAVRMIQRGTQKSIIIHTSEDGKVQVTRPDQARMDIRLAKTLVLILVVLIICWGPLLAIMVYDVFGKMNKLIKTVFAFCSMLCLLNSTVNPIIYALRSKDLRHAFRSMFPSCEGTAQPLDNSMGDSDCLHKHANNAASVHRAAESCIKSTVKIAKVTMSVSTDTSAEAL

[24] = target: T9, G-protein coupled receptor 35 (Homo sapiens, UniProt Q9HC97); experiment: SAR analysis of Agonists of the GPR35 Receptor using an Image-Based Assay - Set 2. [Related pubchem assays (depositor defined):AID2013, AID2026]; type: functional
T9 sequence (Q9HC97 whole entry): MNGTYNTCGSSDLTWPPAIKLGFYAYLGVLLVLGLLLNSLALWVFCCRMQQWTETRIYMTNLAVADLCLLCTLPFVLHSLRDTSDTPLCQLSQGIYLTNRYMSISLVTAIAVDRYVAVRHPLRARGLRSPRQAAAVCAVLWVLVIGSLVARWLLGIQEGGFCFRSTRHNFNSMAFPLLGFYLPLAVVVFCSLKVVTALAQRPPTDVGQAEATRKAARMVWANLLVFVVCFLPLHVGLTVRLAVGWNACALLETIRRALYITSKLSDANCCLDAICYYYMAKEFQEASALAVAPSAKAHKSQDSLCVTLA

[25] = target: T10, Cannabinoid receptor 2 (Homo sapiens, UniProt P34972); experiment: SAR analysis of antagonists of the Cannabinoid Receptor 2 using an Image-Based Assay. [Related pubchem assays (depositor defined):AID2013, AID2026]; type: functional
T10 sequence (P34972 whole entry): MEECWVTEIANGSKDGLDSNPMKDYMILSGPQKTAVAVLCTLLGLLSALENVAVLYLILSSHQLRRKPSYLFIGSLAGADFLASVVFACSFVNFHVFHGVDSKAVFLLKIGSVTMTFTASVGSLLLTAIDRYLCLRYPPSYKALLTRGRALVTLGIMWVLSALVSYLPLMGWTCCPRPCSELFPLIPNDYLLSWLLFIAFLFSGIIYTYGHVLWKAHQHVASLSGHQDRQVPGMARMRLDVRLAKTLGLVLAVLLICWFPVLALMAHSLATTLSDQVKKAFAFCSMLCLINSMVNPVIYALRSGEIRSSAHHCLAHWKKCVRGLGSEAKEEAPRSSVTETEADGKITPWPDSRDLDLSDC

[26] = target: T8, Cannabinoid receptor 1; experiment: SAR analysis of agonists of the Cannabinoid Receptor 1 using an Image-Based Assay - Set 2. [Related pubchem assays (depositor defined):AID2013, AID2026]; type: functional
[27] = target: T9, G-protein coupled receptor 35; experiment: SAR analysis of Antagonists of the GPR35 Receptor using an Image-Based Assay - Set 3. [Related pubchem assays (depositor defined):AID2013, AID2026]; type: functional
[28] = target: T7, G-protein coupled receptor 55; experiment: blockade of LPI-induced GPR55 arrestin translocation – imaging, U2OS, beta-arrestin-GFP, LPI agonist, set 2, SAR follow-up (AID 2820); type: functional
[29] = target: T10, Cannabinoid receptor 2; experiment: SAR analysis of agonists of the Cannabinoid Receptor 2 using an Image-Based Assay. [Related pubchem assays (depositor defined):AID2013, AID2026]; type: functional

Cc1ccc2nc(O)cc(C(=O)OCC(=O)c3ccccc3)c2c1
inactive: IC50 [1] > 79.4 µM | IC50 [2] > 79.4 µM | IC50 [3] > 79.4 µM

COC(=O)N1C(=O)[C@](c2ccccc2)(C2CCCCC2)N1C(=O)OC
active: IC50 [6] 25.5 µM | IC50 [7] 0.929 µM | IC50 [8] 0.968 µM
inactive: CC50 [4] > 10 µM | CC50 [5] > 10 µM

Cc1ccc(CN2C3CCCC2CC(NC(=O)c2ccc(C)cc2)C3)cc1 (centres undefined)
inactive: EC50 [13] > 31.5 µM | EC50 [15] > 32 µM | EC50 [16] > 32 µM | IC50 [17] > 32 µM | IC50 [18] > 32 µM | EC50 [19] > 32 µM | IC50 [20] > 32 µM
active: IC50 [12] 2.62 µM | IC50 [21] 3.28 µM
> 120 µM (not active): EC50 [9] | EC50 [10] | EC50 [11]
0.824 µM: IC50 [14]

Cc1cccn2c(=O)c3cc(C(=O)NCc4ccco4)c(=N)n(C4CCCC4)c3nc12
active: IC50 [22] 1.68 µM | IC50 [28] 0.407 µM
inactive: IC50 [23] > 32 µM | EC50 [24] > 32 µM | IC50 [25] > 32 µM | EC50 [26] > 32 µM | IC50 [27] > 32 µM | EC50 [29] > 32 µM
